According to US8969363B2, “Heterocyclic compounds and uses thereof” (Infinity Pharmaceuticals, Inc., priority 2011, dated 2015):
pEC50, pIC50: −log10 of the molar value. Read-outs that look alike come from different tables or passages of the source.

Legend:
PI3Kα = biological target: T1, PI3Kα (Homo sapiens, UniProt P42336); assay: PI3 Kinase HTRF assay, PI3Kα; format: biochemical; settings: 10 μM PIP2, 10 μM ATP; 'Greater than 10 μM' and 'Greater than 1 μM to 10 μM'; read-out: PI3K α IC50
T1 construct: purchased Millipore Corporation 14-602-K
T1 sequence (P42336 whole entry): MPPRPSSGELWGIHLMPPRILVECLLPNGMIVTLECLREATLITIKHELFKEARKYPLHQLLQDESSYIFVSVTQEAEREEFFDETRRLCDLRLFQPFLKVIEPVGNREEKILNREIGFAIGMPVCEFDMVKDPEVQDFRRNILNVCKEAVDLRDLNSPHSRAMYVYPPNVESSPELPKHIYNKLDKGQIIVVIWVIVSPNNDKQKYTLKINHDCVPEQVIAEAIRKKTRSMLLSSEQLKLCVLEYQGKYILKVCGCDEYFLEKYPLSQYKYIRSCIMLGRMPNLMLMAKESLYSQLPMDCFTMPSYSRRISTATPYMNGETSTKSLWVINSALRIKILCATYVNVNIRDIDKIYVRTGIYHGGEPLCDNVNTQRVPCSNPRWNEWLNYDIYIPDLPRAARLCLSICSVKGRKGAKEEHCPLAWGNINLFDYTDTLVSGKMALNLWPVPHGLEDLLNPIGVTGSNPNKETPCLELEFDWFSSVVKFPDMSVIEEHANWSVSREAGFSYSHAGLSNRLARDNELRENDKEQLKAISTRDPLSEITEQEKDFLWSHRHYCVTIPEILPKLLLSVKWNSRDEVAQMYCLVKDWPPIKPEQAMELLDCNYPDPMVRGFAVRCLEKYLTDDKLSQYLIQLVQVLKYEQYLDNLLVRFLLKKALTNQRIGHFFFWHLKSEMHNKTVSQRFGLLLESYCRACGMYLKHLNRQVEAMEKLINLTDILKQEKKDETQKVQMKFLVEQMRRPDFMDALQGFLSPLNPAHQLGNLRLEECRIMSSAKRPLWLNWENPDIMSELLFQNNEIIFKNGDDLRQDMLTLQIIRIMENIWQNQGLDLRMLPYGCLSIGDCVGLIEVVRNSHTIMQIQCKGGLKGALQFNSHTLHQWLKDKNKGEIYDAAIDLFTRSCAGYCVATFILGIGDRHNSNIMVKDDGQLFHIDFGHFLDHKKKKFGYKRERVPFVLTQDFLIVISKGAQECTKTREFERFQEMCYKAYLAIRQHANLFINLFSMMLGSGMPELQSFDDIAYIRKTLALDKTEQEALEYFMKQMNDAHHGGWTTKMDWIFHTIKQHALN
T1 sequence (P27986 whole entry partner): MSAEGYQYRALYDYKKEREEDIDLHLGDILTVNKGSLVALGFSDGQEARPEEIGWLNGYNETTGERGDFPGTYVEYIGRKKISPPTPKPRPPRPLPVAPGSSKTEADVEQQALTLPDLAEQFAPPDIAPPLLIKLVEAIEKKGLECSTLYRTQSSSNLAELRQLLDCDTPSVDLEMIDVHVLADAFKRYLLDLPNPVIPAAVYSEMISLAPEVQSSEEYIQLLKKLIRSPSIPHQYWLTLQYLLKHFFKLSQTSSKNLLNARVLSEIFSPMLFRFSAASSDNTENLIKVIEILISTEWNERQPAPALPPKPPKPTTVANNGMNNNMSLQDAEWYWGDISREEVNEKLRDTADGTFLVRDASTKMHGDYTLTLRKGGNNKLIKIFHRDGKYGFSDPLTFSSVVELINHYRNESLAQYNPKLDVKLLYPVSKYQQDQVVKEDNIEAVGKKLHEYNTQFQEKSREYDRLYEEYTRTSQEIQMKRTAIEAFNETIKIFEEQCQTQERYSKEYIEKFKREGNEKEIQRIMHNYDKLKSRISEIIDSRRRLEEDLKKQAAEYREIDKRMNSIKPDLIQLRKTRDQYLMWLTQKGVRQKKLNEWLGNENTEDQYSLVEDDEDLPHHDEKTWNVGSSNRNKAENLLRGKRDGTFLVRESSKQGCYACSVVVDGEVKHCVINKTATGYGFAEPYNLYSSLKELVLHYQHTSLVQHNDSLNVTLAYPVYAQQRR
From the text: (§1) A PI3-Kinase HTRF® assay kit (cat No. 33-016) purchased from Millipore Corporation was used to screen compounds provided herein. This assay used specific, high affinity binding of the GRP1 pleckstrin homology (PH) domain to PIP3, the product of a Class 1A or 1B PI3 Kinase acting on its physiological substrate PIP2. During the detection phase of the assay, a complex was generated between the GST-tagged PH domain and biotinylated short chain PIP3. The biotinylated PIP3 and the GST-tagged PH domain recruited fluorophores (Streptavidin-Allophycocyanin and Europium-labeled anti-GST respectively) to form the fluorescence resonance energy transfer (FRET) architecture, generating a stable time-resolved FRET signal. The FRET complex was disrupted in a competitive manner by non-biotinylated PIP3, a product formed in the PI3 Kinase assay.
(§2) PI3 Kinase α, β, γ and δ activity was assayed using the PI3 Kinase HTRF® assay kit (catalogue No. 33-016) purchased from Millipore Corporation. Purified recombinant PI3Kα (catalogue No. 14-602-K), PI3Kβ (catalogue No. 14-603-K), PI3Kγ (catalogue No. 14-558-K) and PI3Kδ (catalogue No. 14-604-K) were obtained from Millipore Corporation. Purified recombinant PI3K enzyme was used to catalyze the phosphorylation of phosphatidylinositol 4,5-bisphosphate (PIP2 at 10 μM) to phosphatidylinositol 3,4,5-trisphosphate (PIP3) in the presence of 10 μM ATP. The assay was carried out in 384-well format and detected using a Perkin Elmer EnVision Xcite Multilabel Reader. Emission ratios were converted into percent inhibitions and imported into GraphPad Prism software. The concentration necessary to achieve inhibition of enzyme activity by 50% (IC50) was calculated using concentrations ranging from 20 μM to 0.1 nM (12-point curve). IC50 values were determined using a nonlinear regression model available in GraphPad Prism 5. […]

Balb/c splenic B cells = assay: B cell activation and proliferation assay (Alamar Blue); format: cell-based; settings: Mus musculus
Protocol: The ability of one or more subject compounds to inhibit B cell activation and proliferation is determined according to standard procedures known in the art. For example, an in vitro cellular proliferation assay is established that measures the metabolic activity of live cells. The assay is performed in a 96 well microtiter plate using Alamar Blue reduction. Balb/c splenic B cells are purified over a Ficoll-Paque™ PLUS gradient followed by magnetic cell separation using a MACS B cell Isolation Kit (Miletenyi). Cells are plated in 90 μl at 50,000 cells/well in B Cell Media (RPMI+10% FBS+Penn/Strep+50 μM bME+5 mM HEPES). A compound provided herein is diluted in B Cell Media and added in a 10 μl volume. Plates are incubated for 30 min at 37° C. and 5% CO2 (0.2% DMSO final concentration). A 50 μl B cell stimulation cocktail is then added containing either 10 μg/ml LPS or 5 μg/ml F(ab′)2 Donkey anti-mouse […] plus 2 ng/ml recombinant mouse IL4 in B Cell Media. Plates are incubated for 72 hours at 37° C. and 5% CO2. A volume of 15 μL of Alamar Blue reagent is added to each well and plates are incubated for 5 hours at 37° C. and 5% CO2. Alamar Blue fluoresce is read at 560Ex/590Em, and IC50 or EC50 values are calculated using GraphPad Prism 5.

PI3Kβ = assay: PI3 Kinase HTRF assay, PI3Kβ; format: biochemical, human; settings: 10 μM PIP2, 10 μM ATP, read-out: PI3K β IC50
Chain of PI3Kβ (Q8BTI9 whole entry): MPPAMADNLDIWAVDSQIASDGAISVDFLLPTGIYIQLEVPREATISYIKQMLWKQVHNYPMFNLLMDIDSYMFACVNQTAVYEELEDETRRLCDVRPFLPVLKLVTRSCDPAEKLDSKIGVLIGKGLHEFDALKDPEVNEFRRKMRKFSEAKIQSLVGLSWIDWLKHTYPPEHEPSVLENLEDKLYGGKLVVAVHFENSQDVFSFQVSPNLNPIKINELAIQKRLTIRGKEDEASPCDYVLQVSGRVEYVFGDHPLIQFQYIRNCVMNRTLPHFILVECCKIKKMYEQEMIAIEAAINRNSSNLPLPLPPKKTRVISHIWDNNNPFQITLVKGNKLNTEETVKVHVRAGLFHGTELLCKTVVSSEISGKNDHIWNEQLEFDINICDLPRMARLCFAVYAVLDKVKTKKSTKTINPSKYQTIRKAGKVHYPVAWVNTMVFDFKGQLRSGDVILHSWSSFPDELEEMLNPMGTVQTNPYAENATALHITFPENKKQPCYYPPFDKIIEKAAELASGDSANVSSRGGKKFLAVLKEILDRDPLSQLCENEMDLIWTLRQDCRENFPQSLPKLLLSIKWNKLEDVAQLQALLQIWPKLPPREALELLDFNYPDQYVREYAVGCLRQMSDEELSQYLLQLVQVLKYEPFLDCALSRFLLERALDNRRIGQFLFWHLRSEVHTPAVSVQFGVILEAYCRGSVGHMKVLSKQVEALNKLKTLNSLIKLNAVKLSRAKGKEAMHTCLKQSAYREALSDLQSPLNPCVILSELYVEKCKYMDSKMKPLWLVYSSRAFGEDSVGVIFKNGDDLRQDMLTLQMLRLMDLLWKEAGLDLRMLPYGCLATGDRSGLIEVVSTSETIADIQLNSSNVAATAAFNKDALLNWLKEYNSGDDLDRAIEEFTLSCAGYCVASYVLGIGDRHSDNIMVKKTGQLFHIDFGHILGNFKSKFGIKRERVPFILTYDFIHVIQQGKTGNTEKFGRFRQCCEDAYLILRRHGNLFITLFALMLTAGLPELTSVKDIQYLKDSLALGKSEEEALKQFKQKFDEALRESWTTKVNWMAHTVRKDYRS
From the text: as §1
as §2, with “Purified recombinant PI3Kα (catalogue No. 14-602-K), PI3Kβ (catalogue No. 14-603-K), PI3Kγ (catalogue No. 14-558-K) and PI3Kδ (catalogue No. 14-604-K) were obtained from Millipore Corporation.” left out, “The concentration necessary to achieve inhibition of enzyme activity by 50% (IC50) was calculated using concentrations ranging from 20 μM to 0.1 nM (12-point curve).” left out

[1] = 'Greater than 10 μM' and 'Greater than 1 μM to 10 μM'

Row | SMILES | pIC50 (PI3Kα) | pEC50 (Balb/c splenic B cells; 'Less than 100 nM') | pIC50 (PI3Kβ; [1]) | pEC50 (Balb/c splenic B cells; 1 μM to 100 nM) | pIC50 (PI3Kβ; 'Less than 100 nM')
1 | C[C@H](Nc1ncnc2cccnc12)c1cc2cccc(Cl)c2c(=O)n1-c1ccccc1 [Compound I-2] | 5.00 to 6.00 | > 7.00 |  |  | 
2 | C[C@H](Nc1ncnc2cccnc12)c1cc2scc(Cl)c2c(=O)n1-c1ccccc1 [Compound I-29] | 5.00 to 6.00 |  |  |  | 
3 | C[C@H](Nc1nc(N)nc2cccnc12)c1cc2cccc(-c3cnn(C)c3)c2c(=O)n1-c1ccccc1 [Compound I-36] | 5.00 to 6.00 |  | < 5.00 |  | 
4 | Cc1cc(-c2cccc3cc([C@H](C)Nc4ncnc5cccnc45)n(-c4ccccc4)c(=O)c23)cnc1C [Compound I-44] | 5.00 to 6.00 |  | < 5.00 |  | 
5 | Cc1nn(C)cc1-c1cccc2cc([C@H](C)Nc3ncnc4cccnc34)n(-c3ccccc3)c(=O)c12 [Compound I-47] | 5.00 to 6.00 |  | < 5.00 |  | 
6 | C[C@H](Nc1ccnc2cccnc12)c1cc2cccc(Cl)c2c(=O)n1-c1ccccc1 [Compound I-49] | 5.00 to 6.00 | > 7.00 |  |  | 
7 | Cc1cc(-c2cccc3nc([C@H](C)Nc4nc(N)nc5cccnc45)n(-c4ccccc4)c(=O)c23)ccn1 [Compound I-88] |  | > 7.00 | 5.00 to 6.00 |  | 
8 | CNc1nc(N[C@@H](C)c2cc3cccc(NC)c3c(=O)n2-c2ccccc2)c2ncccc2n1 [Compound I-95] |  |  | < 5.00 | 6.00 to 7.00 | 
9 | CNc1nc(N[C@@H](C)c2cc3cccc(-c4cnc(OC)nc4)c3c(=O)n2-c2ccccc2)c2ncccc2n1 [Compound I-97] |  | > 7.00 | < 5.00 |  | 
10 | CNc1nc(N[C@@H](C)c2cc3cccc(-c4cnc(C)nc4)c3c(=O)n2-c2ccccc2)c2ncccc2n1 [Compound I-98] |  |  | < 5.00 | 6.00 to 7.00 | 
11 | CNc1cccc2cc([C@H](C)Nc3nc(N)nc4cccnc34)n(-c3ccccc3)c(=O)c12 [Compound I-101] |  | > 7.00 | < 5.00 |  | 
12 | C[C@H](Nc1ccnc2ccnn12)c1cc2cccc(Cl)c2c(=O)n1-c1ccccc1 [II-2, (S)-8-chloro-2-phenyl-3-(1-(pyrazolo[1,5-a]pyrimidin-7-ylamino)ethyl)isoquinolin-1(2H)-one] | 5.00 to 6.00 | > 7.00 |  |  | 
13 | C[C@H](Nc1ccnc2ccnn12)c1cc2cccc(Cl)c2c(=O)n1C1CC1 [II-7] | 5.00 to 6.00 | > 7.00 |  |  | 
14 | C[C@H](Nc1ccnn2ccnc12)c1cc2cccc(Cl)c2c(=O)n1-c1ccccc1 [II-10] |  | > 7.00 |  |  | > 7.00
15 | C[C@H](Nc1ccnn2ccnc12)c1cc2cccc(Cl)c2c(=O)n1C1CC1 [II-11] | 5.00 to 6.00 | > 7.00 |  |  | 
16 | C[C@H](Nc1ccnn2ccnc12)c1cc2cccc(Cl)c2c(=O)n1-c1cccc(F)c1 [II-14] | 5.00 to 6.00 | > 7.00 |  |  | 
17 | C[C@H](Nc1ccnc2ccnn12)c1cc2scc(Cl)c2c(=O)n1-c1ccccc1 [II-20] | 5.00 to 6.00 |  |  |  | 
18 | C[C@H](Nc1ccnn2ccnc12)c1cc2scc(Cl)c2c(=O)n1-c1ccccc1 [II-22] | 5.00 to 6.00 |  |  |  | 
19 | C[C@H](Nc1ncnc2ccnn12)c1cc2cccc(Cl)c2c(=O)n1-c1ccccc1 [II-24] | 5.00 to 6.00 |  |  |  | 
20 | C[C@H](Nc1ncnc2ccnn12)c1cc2cccc(Cl)c2c(=O)n1-c1cccc(F)c1 [II-30] |  | > 7.00 | 5.00 to 6.00 |  | 

Row | SMILES | pIC50 (PI3Kα) | pEC50 (Balb/c splenic B cells; 'Less than 100 nM') | pIC50 (PI3Kβ; [1]) | pEC50 (Balb/c splenic B cells; 1 μM to 100 nM) | pIC50 (PI3Kβ; 'Less than 100 nM')
21 | COc1ncc(-c2cccc3cc([C@H](C)Nc4ccnn5ccnc45)n(-c4ccccc4)c(=O)c23)cn1 [II-48] | 5.00 to 6.00 |  | < 5.00 |  | 
22 | C[C@H](Nc1cc(N)nc2ccnn12)c1cc2cccc(Cl)c2c(=O)n1-c1ccccc1 [II-49] |  | > 7.00 | 5.00 to 6.00 |  | 
23 | COc1ncc(-c2cccc3cc([C@H](C)Nc4cc(N)nc5ccnn45)n(-c4ccccc4)c(=O)c23)cn1 [II-50] |  | > 7.00 | < 5.00 |  | 
24 | C[C@H](Nc1ncnc2[nH]cnc12)c1cc2cccc(C(F)(F)F)c2c(=O)n1-c1ccccc1 [III-3] | 5.00 to 6.00 | > 7.00 |  |  | 
25 | C[C@H](Nc1ncnc2cccnc12)c1cc2cccc(C(F)(F)F)c2c(=O)n1-c1ccccc1 [III-4] | 5.00 to 6.00 | > 7.00 |  |  | 
26 | C[C@H](Nc1ncnc2scnc12)c1cc2cccc(C(F)(F)F)c2c(=O)n1-c1ccccc1 [III-5] |  | > 7.00 |  |  | > 7.00
27 | C[C@H](Nc1ccnc2ccnn12)c1cc2cccc(C(F)(F)F)c2c(=O)n1-c1ccccc1 [III-6] | 5.00 to 6.00 | > 7.00 |  |  | 
28 | C[C@H](Nc1ccnc2ccnn12)c1cc2cccc(C(F)(F)F)c2c(=O)n1-c1cccc(F)c1 [III-11] |  | > 7.00 | 5.00 to 6.00 |  | 
29 | C[C@H](Nc1nc(N)nc2[nH]cnc12)c1cc2cccc(C(F)(F)F)c2c(=O)n1-c1ccccc1 [III-17] |  | > 7.00 |  |  | > 7.00
30 | C[C@H](Nc1ncnc2[nH]cc(F)c12)c1cc2cccc(C(F)(F)F)c2c(=O)n1-c1ccccc1 [III-18] | 5.00 to 6.00 |  | 5.00 to 6.00 |  | 
31 | C[C@H](Nc1ncnc2[nH]cc(C(N)=O)c12)c1cc2cccc(C(F)(F)F)c2c(=O)n1-c1ccccc1 [III-20] | 5.00 to 6.00 |  |  |  | 
32 | C[C@H](Nc1nc(N)nc2cccnc12)c1cc2cccc(C(F)(F)F)c2c(=O)n1-c1ccccc1 [III-23] | 5.00 to 6.00 |  |  |  | 
33 | C[C@H](Nc1nc(N)nc2scnc12)c1cc2cccc(C(F)(F)F)c2c(=O)n1-c1ccccc1 [III-25] | 5.00 to 6.00 |  | 5.00 to 6.00 |  | 
34 | C[C@H](Nc1ccnc2cccnc12)c1cc2cccc(C(F)(F)F)c2c(=O)n1-c1ccccc1 [III-31] |  | > 7.00 | 5.00 to 6.00 |  | 
35 | C[C@H](Nc1ncnc(N)c1C#N)c1cc2cccc(C(F)(F)F)c2c(=O)n1-c1ccccc1 [III-42] |  | > 7.00 | < 5.00 |  | 
36 | C[C@H](Nc1nc(N)ncc1C(F)(F)F)c1cc2cccc(C(F)(F)F)c2c(=O)n1-c1cccc(F)c1 [III-46] |  |  | 5.00 to 6.00 | 6.00 to 7.00 | 
37 | C[C@H](Nc1ncnc2[nH]nc(C#N)c12)c1cc2cccc(Cl)c2c(=O)n1-c1ccccc1 [IV-11] |  | > 7.00 | 5.00 to 6.00 |  | 
38 | C[C@H](Nc1ncnn2ccnc12)c1cc2cccc(Cl)c2c(=O)n1-c1ccccc1 [IV-12] | 5.00 to 6.00 |  |  |  | 
39 | C[C@H](Nc1ncnn2ccnc12)c1cc2cccc(Cl)c2c(=O)n1-c1cccc(F)c1 [IV-13] | 5.00 to 6.00 |  | 5.00 to 6.00 |  | 
40 | C[C@H](Nc1nc(N)nc2nccnc12)c1cc2cccc(Cl)c2c(=O)n1-c1ccccc1 [IV-22] |  | > 7.00 | 5.00 to 6.00 |  | 
